Measurements as given in PMC6930570, “2-Arylidene-1-indandiones as Pleiotropic Agents with Antioxidant and Inhibitory Enzymes Activities” (Molecules, 2019).

Tests used:
[1] = Experimental lipophilicity as RM values by RPTLC; type: physicochemical; design: key: RM = log[(1/Rf) − 1], from Rf values by RPTLC; settings: methanol/water 70/30, 24 °C, average of at least 5 measurements
Excerpt: Lipophilicity is a physicochemical parameter indicating the relationship of a drug to its biological activity. It affects ligand-target binding interactions, solubility, ADME (absorption, distribution, bioavailability, metabolism, and elimination) and toxicological effects. RPTLC (reverse phase thin layer chromatography) method was used for the experimental determination, as RM values. The RPTLC method is considered a secure, rapid and appropriate method for expressing the lipophilic character of a compound (Table 1).
Reversed phase TLC (RPTLC) was performed on silica gel plates impregnated with 5% (v/v) liquid paraffin in light petroleum ether. The mobile phase was a methanol/water mixture (70/30, v/v). The plates were developed in closed chromatography tanks saturated with the mobile phase at 24 °C. Spots were detected under UV light. Five individual measurements of Rf values were recorded and used for the determination of RM using the equation RM = log [(1/Rf) − 1] [59, 60, 62] (Table 2).

[2] = Reducing activity of the stable radical DPPH; type: biochemical
Procedure: The novel derivatives were studied for their interaction with the sTable 2,2-diphenyl-1-picrylhydrazyl free radical (DPPH)at concentration 50 µM, 100 µM and 200 µM after 20 and 60 min (Table 2). In this assay the DPPH radical is reduced transferring one electron from the antioxidant. Phenolic compounds such as catechol and derivatives generate phenoxide anions with strong antioxidant capacity. Nordihydroguaretic acid (NDGA), the reference compound acts by this mechanism. Compound 10 presents the highest scavenging activity at 100 µM after 20 min correlated with the presence of the phenolic OH. Compounds 3, 4, 5, 7 presented medium activities depending from time and concentration. The presence of the heteroatom O or S seems to influence the activity e.g., derivatives 1, 2, and 3. Replacement of phenyl ring (4) by a thienyl group (1) decreases antioxidant behavior. […] On the contrary the presence of the furyl ring (3) enhances reduction. Additionally, the presence of a π-dimethyl-amino group 6 reduces the scavenging ability whereas its absence in (5), increases the activity. The presence of two conjugated double bonds (5) leads to lower activity compared to the simpler compound 4. Compounds 9 and 10 present the highest milogP values (5.94). Both include a phenolic hydrogen in their structure. […] On the contrary in compound 9 steric reasons are possible to lead to a decrease. Lipophilicity seems to influence the interaction of compound 10.
To a solution of DPPH in absolute ethanol an equal volume of the compounds with final concentrations of 50, 100 and 200 µM from a stock solution of 10 mM (in 1% DMSO and ethanol) was added. After 20 and 60 min the absorbance was recorded at 517 nm at room temperature (Table 2).

soybean lipoxygenase = target: T1, soybean lipoxygenase (Glycine max, UniProt P08170); assay: Soybean lipoxygenase inhibition in vitro; type: biochemical; settings: sodium linoleate substrate, no = no action under the experimental conditions, read-out: LOX (% Inhibition 100 µM)
T1 construct: purchased Sigma Chemical, Co. (St. Louis)
T1 sequence (P08170 1-839): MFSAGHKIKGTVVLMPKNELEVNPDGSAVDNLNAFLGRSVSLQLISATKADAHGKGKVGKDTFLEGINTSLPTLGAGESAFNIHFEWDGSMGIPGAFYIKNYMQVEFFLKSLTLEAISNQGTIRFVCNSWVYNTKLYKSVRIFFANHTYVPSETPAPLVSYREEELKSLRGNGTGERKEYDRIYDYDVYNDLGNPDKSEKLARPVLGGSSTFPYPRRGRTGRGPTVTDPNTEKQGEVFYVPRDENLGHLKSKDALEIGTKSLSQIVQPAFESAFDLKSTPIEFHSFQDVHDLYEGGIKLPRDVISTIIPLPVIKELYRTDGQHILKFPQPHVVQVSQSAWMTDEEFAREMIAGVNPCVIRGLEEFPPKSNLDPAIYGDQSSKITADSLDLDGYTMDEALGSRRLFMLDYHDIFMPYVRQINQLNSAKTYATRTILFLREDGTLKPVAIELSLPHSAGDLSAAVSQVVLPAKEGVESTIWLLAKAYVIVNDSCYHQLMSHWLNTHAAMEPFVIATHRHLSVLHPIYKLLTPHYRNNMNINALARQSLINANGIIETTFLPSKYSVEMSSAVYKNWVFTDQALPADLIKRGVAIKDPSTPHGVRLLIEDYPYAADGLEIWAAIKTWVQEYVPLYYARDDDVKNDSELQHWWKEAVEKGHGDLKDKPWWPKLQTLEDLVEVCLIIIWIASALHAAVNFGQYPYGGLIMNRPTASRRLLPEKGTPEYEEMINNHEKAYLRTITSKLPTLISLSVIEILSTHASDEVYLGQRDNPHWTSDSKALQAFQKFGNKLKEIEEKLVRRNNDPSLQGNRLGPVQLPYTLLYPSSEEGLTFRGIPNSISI
Procedure: Thus, we used soybean LOX in our in vitro experiments.
In vitro study was performed as reported previously by our group. Sodium linoleate (0.1 mM) and 0.2 mL of enzyme solution (1/9 × 104 w/v in saline) were used for the incubation of the tested derivatives.

[3] = Inhibition of linoleic acid peroxidation induced by AAPH; type: biochemical; settings: no = no action under the experimental conditions
Excerpt: In the water soluble 2,2′-azobis(2-amidinopropane) hydrochloride (AAPH) the free radicals are produced in vitro through spontaneous thermal decomposition resembling to lipid peroxidation in cells due to the action of the peroxyl radicals. […] Compounds 11, 5, 4 and 3 presented no activity under the experimental conditions. From the experimental results it can be concluded that the 3,5-di-tert-butyl-group offers protection against lipid peroxidation. Electronic parameters expressed by the highest occupied molecular orbital (HOMO) describes better the biological activity (Equation (2)). log AAPH % = −22.042(± 8.731) HOMO − 4.853 (2.622)(2) n = 8, r = 0.930, r^2 = 0.864, q^2 = 0.567, s = 0.146, F1,8 = 5.783, α = 0.1
The oxidation reaction was started with 2,2′-Azobis(2-amidinopropane) dihydrochloride (AAPH) as a free radical initiator. Linoleic acid sodium salt was oxidized at 234 nm to a conjugated diene hydroperoxide resulting an increased absorption. Trolox was used as reference compound (93%) (Table 3).

[4] = ABTS+. decolorization assay; type: biochemical; settings: 1 min, no = no action under the experimental conditions
Excerpt: The radical cation ABTS^+• is directly generated through potassium persulfate by oxidation with no participation of an intermediary radical and then the reduction is followed by adding electron-donating antioxidants. In this assay the radical is generated before adding the antioxidant (decolorization assay). […] It seems that lipophilicity influences the activity, since both are presenting high lipophilicity values. […] The radical cation ABTS^+• was generated from an ABTS stock solution in water (7 mM) which was mixed with potassium persulfate (2.45 mM) and left in the dark at room temperature for 12–16 h before use. The results are recorded after 1min of the mixing solutions at 734 nm and compared to the appropriate standard inhibitor Trolox (Table 3).

trypsin = assay: In vitro inhibition of trypsin induced proteolysis; type: biochemical; settings: bovine albumin substrate, no = no action under the experimental conditions
Procedure: Serine proteases are implicated in the pathophysiology of inflammatory diseases and trypsin is well known years ago [66]. Trypsin has been associated with host defense reactions and tissue damage. In this study, the novel derivatives have been evaluated towards trypsin and thrombin. Compounds 8 and 9 present high activity.
The Kunitz method was used after modification using bovine albumin was used as substrate for trypsin. In this assay, first 200 μL of 0.075 mg/mL trypsin and 780 μL of phosphate buffer pH 7.6 including the tested compounds (20 μL in DMSO, final concentration 100 μM) were pre-incubated at 37 °C for 20 min and then added 1 mL of albumin (stock solution 6 g/100 mL in phosphate buffer 0.1 M, pH 7.6) and incubated at 37 °C for 30 min. Secondly 1mLof 5% trichloroacetic acid was added to the incubated solution to stop the enzyme’s reaction and allowed to set at room temperature for 1 h. Then the solution was filtered, and the absorption of the filtrate was measured at 280 nm using salicylic acid as a reference compound [61] (Table 3).

[5] = tested on: carrageenin-induced rat paw edema; assay: Inhibition of the carrageenin-induced rat paw edema (CPE); type: in vivo, Fisher 344 rats; settings: Rattus norvegicus, ip; 0.01 mmol/kg body weight, intraperitoneally, 3.5 h after carrageenin; read-out: CPE % (reduction of the rat paw edema)
Excerpt: Carrageenin-induced rat paw edema (CPE) model was used to study the in vivo anti-inflammatory activity of the tested derivatives and the results are presented in Table 3. […] Compounds 2, 7, 8, 10, and 12 presented small differences in their biological activity. The presence of the thienyl group as well as of the furyl leads to higher anti-inflammatory activity (1 and 3) while substitution with a phenyl group leads to two-fold decrease of the activity (28%).
Edema was induced in the right hind paw of Fisher 344 rats (150–200 g) by the intradermal injection of 0.1 mL 2% carrageenin in water. Both sexes were used while females pregnant were excluded. Each group was composed of 6–15 animals. The animals, which have been bred in our laboratory, were housed under standard conditions and received a diet of commercial food pellets and water ad libitum during the maintenance but they were entirely fasted during the experiment period. Our studies were in accordance with recognised guidelines on animal experimentation. (guidelines for the care and use of laboratory animals published by the Greek Government 160/1991, based on EU regulations 86/609). Rats were kept in the Centre of the School of Veterinary Medicine (EL54 BIO42), Aristotle University of Thessaloniki, which is registered by the official state veterinary authorities (presidential degree 56/2013, in harmonization with the European Directive 2010/63/EEC). The experimental protocols were approved by the Animal Ethics Committee of the Prefecture of Central Macedonia (no. 270079/2500). The tested compounds 0.01 mmol/kg body weight were suspended in water, with a few drops of Tween 80 and ground in a mortar before use and were given intraperitoneally simultaneously with the carrageenin injection. The rats were euthanized 3.5 h after carrageenin injection. The difference between the weight of the injected and uninjected paws was calculated for each animal. The change in paw weight was compared with that in control animals (treated with water) and expressed as a percent inhibition of the edema CPE % values […] [58, 59]. Indomethacin in 0.01 mmol/kg (47%). Values CPE % are the mean from two different experiments with a standard error of the mean less than 10% (Table 3).

bovine thrombin = target: T2, bovine thrombin (Bos taurus, UniProt P00735); assay: In vitro inhibition of thrombin; type: biochemical; settings: substrate tosyl-Gly-Pro-Arg-pNA, no = no action under the experimental conditions, read-out: TH% 100 µM (thrombin inhibition)
T2 construct: purchased Sigma Chemical, Co. (St. Louis)
Procedure: It is well known that indandione derivatives exert their anticoagulant activity indirectly by inhibiting prothrombin synthesis in the liver. […] Derivatives 1, 2, 5, 8, 9, 10, and 12 were tested in vitro as possible thrombin inhibitors. Among the tested derivatives compound 8 presented 100% inhibition followed by compounds […] and 10.
As a substrate tosyl-Gly-Pro-Arg-pNA acetate salt was used at 1 mM final concentration. Compounds were dissolved at a final concentration of […] in a Tris-buffer (0.05 M Tris, 0.154 M NaCl, ethanol 5%, pH = 8.0). Three minutes after the addition of bovine thrombin (2.5 unit/mg), the reaction was ended by adding 1 mL acetic acid 50%. The absorption of the released p-nitro-aniline was measured at 405 nm (Table 3). Warfarin and Inogatran were used as reference compounds.

With `O=C1C(=C/C=C\c2ccccc2)C(=O)c2ccccc21` [Compound 5, (Z)-2-(3-phenylallylidene)-1H-indene-1,3(2H)-dione] the “RM (±SD)” value [1] was 0.158 ± 0, the “RA% 50 µM 20 min” value [2] was 21% and the “RA% 50 µM 60 min” value [2] was 25%. The “RA% 100 µM 20 min” value [2] was 44%, the “RA% 100 µM 60 min” value [2] was 48% and the “RA% 200 µM 20 min” value [2] was 57%. The “RA% 200 µM 60 min” value [2] was 72%, the inhibition at 100 µM (soybean lipoxygenase) was 26.4% and the “AAPH% 100 µM (anti-lipid peroxidation)” value [3] was “no activity and no”. The “ABTS+. % 100 µM (decolorization activity)” value (shortened to “ABTS+. % 100 µM”) [4] was “no”, the “Iptr% 100 µM (inhibition of trypsin induced proteolysis)” value (trypsin) was “do not present any activity and no” and the melting point was 165 to 167 °C.

In the case of `O=C1C(=Cc2ccc3[nH]ccc3c2)C(=O)c2ccccc21` [Compound 11, (Z)-2-((1H-indol-5-yl)methylene)-1H-indene-1,3(2H)-dione], the “RM (±SD)” value [1] was −0.196 ± 0.02, the “RA% 50 µM 20 min” value [2] was 2% and the “RA% 50 µM 60 min” value [2] was 2%. For the same compound, the “RA% 100 µM 20 min” value [2] was 19%, the “RA% 100 µM 60 min” value [2] was 19% and the “RA% 200 µM 20 min” value [2] was 10%. For the same compound, the “RA% 200 µM 60 min” value [2] was 10%, the inhibition at 100 µM (soybean lipoxygenase) was 38.6% and the “AAPH% 100 µM (anti-lipid peroxidation)” value [3] was “no activity and no”. The “ABTS+. % 100 µM” value [4] was 8%, the “Iptr% 100 µM (inhibition of trypsin induced proteolysis)” value (trypsin) was 6% and the melting point was 223 to 225 °C.

Compound `COc1ccc2c(c1)c(CC(=O)O)c(C)n2C(=O)c1ccc(Cl)cc1` [Indomethacin, reference compound] has an inhibition in vivo at 10 µmol/kg [5] of 47%.

In the case of `N=C(N)NCCCNC(=O)[C@@H]1CCCCN1C(=O)[C@@H](CC1CCCCC1)NCC(=O)O` [Inogatran, reference compound], the inhibition at 100 µM (bovine thrombin) was 98%.

With `CC(Cc1ccc(O)c(O)c1)C(C)Cc1ccc(O)c(O)c1` (centres unmarked) [NDGA, Nordihydroguaretic acid, reference compound] the “RA% 50 µM 20 min” value [2] was 81%, the “RA% 50 µM 60 min” value [2] was 83% and the “RA% 100 µM 20 min” value [2] was 87%. The “RA% 100 µM 60 min” value [2] was 93%, the “RA% 200 µM 20 min” value [2] was 94% and the “RA% 200 µM 60 min” value [2] was 96%.

With `O=C(O)c1ccccc1O` [Salycilic Acid, salicylic acid, reference compound] the “Iptr% 100 µM (inhibition of trypsin induced proteolysis)” value (trypsin) was 54%.

For `Cc1c(C)c2c(c(C)c1O)CCC(C)(C(=O)O)O2` (centres unmarked) [Trolox, reference compound], the “AAPH% 100 µM (anti-lipid peroxidation)” value [3] was 93% and the “ABTS+. % 100 µM” value [4] was 91%.
